Earlier results as cited in EP0712633A1, “Pharmaceutical compositions for topical application” (Blank, Izhak, priority 1994, dated 1996).

Conditions: 6-carboxylfluorescein

increase of penetration compared to the control (pretreatment of the skin with 4%) [times] | Compound | increase of plasma levels of the dye compared with a control (0.1% w/v in conjunction with sodium dodecyl sulfate 0.05% w/v) [times]
 | OCCS [2-mercaptoethanol] | 40
9 | O=C(O)CS [calcium thioglycolate] | 
